Earlier results on four molecules are cited in article PMC4744679 (Drug Testing and Analysis, 2015).

The conditions of data set [1]: murine, single intraperitoneal injection.
The conditions of data set [2]: for Primary accumulation: inner ear, brain, kidney and liver examined.
For data set [3] the following is noted: mature teratoma.
The conditions of data set [4]: 0.5–3 h of observation.
The conditions of data set [5]: rats, orally administered, 24 and 48 h after injection.

`N.N.[Cl][Pt][Cl]` [cisplatin, cis‐dichlorodiammineplatinum (II)]: the Main deposition result is “kidney”. Also, the Main platinum accumulation result in data set [1] was “kidneys and, secondly, in liver”. The Primary accumulation entry in data set [2] is “kidney and liver”. Also, the “Time after administration at which platinum is detected in the tissue” value in data set [3] is “more than 7 years”.
With `CC(C)c1cc(C(=O)[O-])c([O-])c(C(C)C)c1.NC1CCCCC1N.[Pt+2]` [Saliplatin, cis‐3,5‐diisopropylsalylic cyclohexano‐diaminoplatinum (II)], in data set [4], the Primary accumulation sites entry is “spleen, liver, and kidneys”.
Turning to `N.N.O=C([O-])C1(C(=O)[O-])CCC1.[Pt+2]` [carboplatin, cis‐diammine(1,1‐cyclobutanedicarboxylato)platinum (II)], the Main deposition result is given as “kidney”. In data set [2], the “Distribution into brain and inner ear” value is “much less distributed into brain and inner ear”; the Primary accumulation entry is “kidney and liver”.
For `CC(=O)[O-].CC(=O)[O-].N.NC12CC3CC(CC(C3)C1)C2.[Cl-].[Cl-].[Pt+4]` [(OC‐6‐43)‐bis (acetato) (1‐adamantylamine) amminedichloroplatinum (IV)], the Main accumulation organs entry in data set [5] is “liver, kidneys and spleen”.
